Laboratory results published in patent US10342782B2, “Positive allosteric modulators of the muscarinic acetylcholine receptor M4” (Vanderbilt University, priority 2016, dated 2019).

Molecular target: T1, Human M4 (Homo sapiens, UniProt P08173)
T1 sequence (P08173 1-479): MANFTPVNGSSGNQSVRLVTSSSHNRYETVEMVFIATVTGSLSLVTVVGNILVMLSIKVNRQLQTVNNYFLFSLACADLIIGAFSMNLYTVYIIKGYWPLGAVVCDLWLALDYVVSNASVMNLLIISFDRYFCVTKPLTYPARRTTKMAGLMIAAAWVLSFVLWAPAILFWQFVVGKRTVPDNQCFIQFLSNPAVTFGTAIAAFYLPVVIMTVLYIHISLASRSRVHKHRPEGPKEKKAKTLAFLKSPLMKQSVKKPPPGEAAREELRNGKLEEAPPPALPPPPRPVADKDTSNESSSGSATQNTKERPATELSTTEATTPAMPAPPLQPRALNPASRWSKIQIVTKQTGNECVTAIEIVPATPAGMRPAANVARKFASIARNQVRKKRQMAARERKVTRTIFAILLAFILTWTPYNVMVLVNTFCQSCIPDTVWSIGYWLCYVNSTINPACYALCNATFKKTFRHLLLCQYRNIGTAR
Test: cell-based
Conditions: for Emax: CHO-K1
Experimental: Human M4 cDNA, along with the chimeric G protein Gqi5, were transfected into Chinese hamster ovary (CHO-K1) cells purchased from the American Type Culture Collection using Lipofectamine2000. M4/Gqi5/CHO cells were grown in Ham's F-12 medium containing 10% heat-inactivated fetal bovine serum (FBS), 20 mM HEPES, 500 μg/mL G418 sulfate, and 200 μg/mL Hygromycin B.
For high throughput measurement of agonist-evoked increases in intracellular calcium, CHO-K1 cells stably expressing muscarinic receptors were plated in growth medium lacking G418 and hygromycin at 15,000 cells/20 μL/well in Greiner 384-well black-walled, tissue culture (TC)-treated, clear-bottom plates (VWR). Cells were incubated overnight at 37° C. and 5% CO2. […] Test compound CRCs were then transferred to daughter plates (240 nL) using the Echo acoustic plate reformatter (Labcyte, Sunnyvale, Calif.) and then diluted into assay buffer (40 μL) to a 2× stock using a Thermo Fisher Combi (Thermo Fisher Scientific, Waltham, Mass.).
Calcium flux was measured using the Functional Drug Screening System (FDSS) 6000 or 7000 (Hamamatsu Corporation, Tokyo, Japan) as an increase in the fluorescent static ratio. Compounds were applied to cells (20 μL, 2×) using the automated system of the FDSS at 2-4 s into the protocol and the data were collected at 1 Hz. […] Agonist activity was analyzed as a concentration-dependent increase in calcium mobilization upon compound addition. Positive allosteric modulator activity was analyzed as a concentration-dependent increase in the EC20 acetylcholine response. Antagonist activity was analyzed as a concentration-dependent decrease in the EC80 acetylcholine response. Concentration-response curves were generated using a four-parameter logistical equation in XLFit curve fitting software (IDBS, Bridgewater, N.J.) for Excel (Microsoft, Redmond, Wash.) or Prism (GraphPad Software, Inc., San Diego, Calif.).

Row | EC50 | Emax | Structure (SMILES)
1 | 217 nM | 86% | Cc1nc2cc(C)c3c(N)c(C(=O)NCc4ccc(N5CCN(C)CC5)cc4)sc3n2n1 [Compound 8, 6-amino-2,5-dimethyl-N-(4-(4-methylpiperazin-1-yl)benzyl)thieno[3,2-e][1,2,4]triazolo[1,5-a]pyridine-7-carboxamide]
2 | 863 nM | 79% | Cc1nc2cc(C)c3c(N)c(C(=O)NC4CN(c5ncc(C6CC6)cc5C)C4)sc3n2n1 [Compound 9, 6-amino-N-(1-(5-cyclopropyl-3-methylpyridin-2-yl)azetidin-3-yl)-2,5-dimethylthieno[3,2-e][1,2,4]triazolo[1,5-a]pyridine-7-carboxamide]
3 | 596 nM | 66% | Cc1nc2cc(C)c3c(N)c(C(=O)N[C@H]4CCN(c5ccc(F)cn5)C4)sc3n2n1 [Compound 12, (S)-6-amino-N-(1-(5-fluoropyridin-2-yl)pyrrolidin-3-yl)-2,5-dimethylthieno[3,2-e][1,2,4]triazolo[1,5-a]pyridine-7-carboxamide]
4 | 1200 nM | 43% | Cc1nc2cc(C)c3c(N)c(C(=O)N[C@@H]4CCN(c5ccc(F)cn5)C4)sc3n2n1 [Compound 15, (R)-6-amino-N-(1-(5-fluoropyridin-2-yl)pyrrolidin-3-yl)-2,5-dimethylthieno[3,2-e][1,2,4]triazolo[1,5-a]pyridine-7-carboxamide]
